Where a name gives a salt, the structure may show the parent alone. Read-outs that look alike come from different tables or passages of the source.
Experiments:
Assay type in all cases: physicochemical
[1] = Aqueous solubility, 24 hours equilibration in water at 25° C., HPLC, pH and XRPD of residue; details: water
Experimental: Briefly, quantitative high performance liquid chromatography (HPLC) was used to determine the aqueous solubility. X-ray powder diffraction spectrometry was also used to characterize the thermodynamic solubility of the mono-hydrochloride and di-hydrochloride salts of MN-029. After a 24 hours equilibration of each salt form in water at 25° C., the residual solid material was separated from the aqueous solution and the pH of the aqueous sample was measured. The XRPD spectrum of the solid residue obtained from the MN-029 di-hydrochloride vial indicated the solid material to be the mono-hydrochloride salt of MN-029. […] Table 4 illustrates the data from aqueous solubility studies of the mono-hydrochloride and di-hydrochloride salts of MN-029.
The suspension was equilibrated at 25° C. for 24 hours then pH was measured. The suspension was filtered and the filtrate was diluted by a factor of 101. Quantization by HPLC with a reference to a standard solution. Different volumes of the standard, diluted, and undiluted solution were injected and solubility was calculated by integration of the peak found at the same time as the principle peak in the standard solution.

[2] = Solubility of MN-029 di-hydrochloride in aqueous citric acid; details: aqueous citric acid (4.75 mg/ml), 25° C., 12 hours shaking
From the text: Without being held to any particular theory, the present inventor believes that the enhanced solubility of the di-hydrochloride salt is enhanced by the lower pH of the resulting solution. That is, the reduced pH of a solution of the di-hydrochloride of MN-029 improves its aqueous solubility. To test this theory, the present inventor measured the solubility of MN-029 di-hydrochloride in aqueous citric acid and in citrate buffers at different pH values. Two samples of the di-hydrochloride salt in aqueous citric acid were prepared by adding 10 ml of an aqueous citric acid solution to 36.9 mg and 74.5 mg of MN-029 di-hydrochloride salt in a vial.
After equilibration with shaking at 25° C. for 12 hours, visual inspection of the solution in each vial indicated a clear colorless solution with no solid residue. Accordingly, the solubility MN-029 di-hydrochloride in aqueous citric acid (4.75 mg/ml) was calculated to exceed […] of the di-hydrochloride per milliliter of aqueous citric acid.

[3] = Solubility as a function of pH in buffers without and with 15% HPBCD; details: thermodynamic from solid
Experimental: Buffers were prepared to cover a pH range of 2 to 7. Approximately 5 to 10 milligrams of drug was weighed into an HPLC vial to which 1.00 mL of the appropriate buffer was added. The solutions were vortexed briefly and were then shaken for five days on an orbital shaker. The prolonged shaking was carried out because slow equilibration had been observed during the initial formulation studies with different salt forms of MN-029.
Buffers with 15% HPBCD were prepared from the previous buffers. One and a half grams of HPBCD was weighed into each of several 10 mL volumetric flasks. HPBCD was dissolved in and diluted to volume with the appropriate buffer. 15 to 20 milligrams of MN-029 di-hydrochloride was weighed out into an tared HPLC vial. To the di-hydrochloride salt was added 1.00 mL of each buffer and the solution was vortexed briefly to dissolve the salt. The solutions were placed on an orbital shaker for five days. Solubility results are shown in Table 10, and the pH solubility profile for the drug in the absence of HPBCD is shown in FIG. 8.

[4] = Gravimetric Vapor Sorption (GVS) hygroscopicity; details: for Weight change: GVS
From the text: Moreover, neither the mono-hydrochloride salt or the di-hydrochloride salt of MN-029 show any significant change in phase as measured by XRPD analysis of samples subjected to GVS analysis (see FIG. 6).

[5] = Osmolality and pH of solutions in water and in 15% HPBCD
Experimental: Solutions were prepared by weighing MN-029 di-hydrochloride salt into 10-mL volumetric flasks. The drug was dissolved in water with vortexing, and samples were diluted to volume with water. Solutions of 1, 2, 4, 6 and 8 mg/mL were made according to this procedure. The samples were allowed to sit at room temperature overnight prior to pH and osmolality measurements.
All samples were clear except for the 8 mg/mL solution, which was initially clear but precipitated upon sitting overnight. As shown in Table 10 and in FIGS. 9 and 10, the pH declined in an almost linear fashion with increasing drug concentration while osmolality increased linearly with concentration up to 6 mg/mL.
The pH and osmolality were also measured for solutions of MN-029 di-hydrochloride salt in a 15% solution of hydroxypropyl-β-cyclodextrin (HPBCD). Solutions of 5, 10, 15, 20, and 30 mg/mL were prepared for analysis. The solutions were made by weighing out an appropriate amount of the compound into HPLC vials to which 1.00 mL of 15% HPBCD was added with brief vortexing. Although solutions were clear upon mixing, they were shaken overnight on an orbital shaker to assure equilibration. All solutions remained clear after overnight shaking. HPBCD at a concentration of 15% was sufficient to solubilize MN-029 di-hydrochloride up to a concentration of 30 mg/mL. As shown in Table 11 and in FIGS. 11 and 12, the pH decreased almost linearly with increasing MN-029 di-hydrochloride concentration, while the osmolality increased linearly. The dotted lines on the pH graphs (FIGS. 9 and 11) connect the data points for clarity while the dotted lines on the osmolality graphs (FIGS. 10 and 12) are linear regressions of the data which are extrapolated back to zero drug concentration.

[6] = 25° C., equilibration for 24 hours
[7] = In Deionized Water, 8.00* mg/mL (precipitated upon sitting overnight)

fold more soluble in water than the mono-hydrochloride salt [1]: at least 3 fold
Concentration of filtrate [1, 6]: 2.1 mg/ml of free base
pH of saturated solution [1, 6]: 1.03
solubility at 5 days ([3]; aqueous buffer with 15% HPBCD, aqueous with cosolvent or surfactant or cyclodextrin, pH 2 to pH 6.9, in the presence of 15% HPBCD, read-out: solubility across the tested pH range): > 20 mg/mL
solubility at 5 days ([3]; aqueous buffer, pH 2, aqueous buffer, Without HPBCD, buffer pH 2.0, final pH 2.10, five days shaking, read-out: MN-029 Solubility): ~6 mg/mL
Weight change ([4]; 0% RH to 40% RH): +0.56 % w/w
Weight change ([4]; 40% RH to 90% RH, listed as A063886, di-hydrochloride): Reversible uptake of +0.86% w/w
Weight change ([4]; 40% RH to 90% RH, listed as MN029*2HCl, di-hydrochloride): +0.86 % w/w
Weight change ([4]; 90% RH to 0% RH): −1.45 % w/w
XRPD of residue after GVS ([4]; sample subjected to GVS): No significant difference
solubility ([5]; 15% HPBCD solution, aqueous with cosolvent or surfactant or cyclodextrin, thermodynamic from solid, read-out: concentration solubilized by 15% HPBCD (solutions clear after overnight shaking)): ≥ 30 mg/mL
Osmolality ([5]; In 15% HPBCD, 5.35 mg/mL): 162 mOsm/kg
pH ([5]; In 15% HPBCD, 5.35 mg/mL): 2.40
Osmolality ([5]; In 15% HPBCD, 10.1 mg/mL): 182 mOsm/kg
pH ([5]; In 15% HPBCD, 10.1 mg/mL): 2.21
Osmolality ([5]; In 15% HPBCD, 15.3 mg/mL): 203 mOsm/kg
pH ([5]; In 15% HPBCD, 15.3 mg/mL): 2.10
Osmolality ([5]; In 15% HPBCD, 20.1 mg/mL): 221 mOsm/kg
pH ([5]; In 15% HPBCD, 20.1 mg/mL): 2.04
Osmolality ([5]; In 15% HPBCD, 30.1 mg/mL): 259 mOsm/kg
pH ([5]; In 15% HPBCD, 30.1 mg/mL): 1.89
Osmolality ([5]; In Deionized Water, 1.05 mg/mL): 6 mOsm/kg
pH ([5]; In Deionized Water, 1.05 mg/mL): 3.25
Osmolality ([5]; In Deionized Water, 2.04 mg/mL): 11 mOsm/kg
pH ([5]; In Deionized Water, 2.04 mg/mL): 3.03
Osmolality ([5]; In Deionized Water, 4.03 mg/mL): 22 mOsm/kg
pH ([5]; In Deionized Water, 4.03 mg/mL): 2.82
Osmolality ([5]; In Deionized Water, 5.96 mg/mL): 32 mOsm/kg
pH ([5]; In Deionized Water, 5.96 mg/mL): 2.63
Osmolality [5, 7]: 36* mOsm/kg
pH [5, 7]: 1.90*
Compound: COC(=O)Nc1nc2ccc(Sc3ccc(NC(=O)[C@H](C)N)cc3)cc2[nH]1 [MN-029 di-hydrochloride, carbamic acid N-[6-[[4-[[(2S)-2-amino-1-oxopropyl]amino]phenyl]thio]-1H-benzimidazol-2-yl]-methyl ester di-hydrochloride]
solubility in aqueous citric acid [2]: exceed 7.54 mg of the di-hydrochloride per milliliter of aqueous citric acid

Source: patent US8633324B2, “Denibulin di-hydrochloride” (Medicinova, Inc., priority 2011, dated 2014)
